According to patent US20200308548A1, “Amplifying Beta Cell Differentiation with Small Molecules BET (Bromodomain And Extraterminal Family Of Bromodomain-Containing Proteins) Inhibitors” (Centre National de la Recherche Scientifique (CNRS), priority 2016, published 2020):

What was measured:
[1] = tested on: mouse embryonic pancreatic buds; assay: NGN3 immunohistochemistry and count of positive nuclei in cultured mouse pancreatic buds; assay type: cell-based; conditions: five days culture; 0.5 μM IBET-151 or 0.1 μM (+)-JQ1; vs DMSO
Experimental: (§1) Mouse pancreatic buds were dissected from E11.5 C57Bl6/J embryos and placed at the air/medium interface on 0.45μm filters in culture dishes containing RPMI medium supplemented with 10% fetal calf serum, 1% penicillin-streptomycin, 1% non-essential amino acids and 10mM HEPES. Pancreatic buds were cultured at 37° C. with 5% CO2.
(§2) IBET-151 was obtained from Sigma-Aldrich and (+)/-JQ1 from Abcam. Stock solutions were prepared in DMSO. Inhibitors or DMSO (0.1% final concentration) were added to the culture medium which was changed daily.
Pancreatic buds were fixed in 3.7% formaldehyde, pre-embedded in agarose gel (4% of type VII low gelling temperature agarose (Sigma-Aldrich)) and embedded in paraffin. Sections (4 μm thick) were collected and processed for 3,3' diaminobenzidine immunohistological staining of NGN3, as previously described (Attali et al., 2007).
Photographs representative of a whole pancreas were taken using a transmitted light microscope (Leitz DMRB, Leica) and digitized using a Hammamatsu cooled 3CCCD camera. Total number of NGN3 positive nuclei per rudiment were then manually counted. Values represent the average of three experiments with standard deviation error bars. Statistical analysis was performed using unpaired Student t test.

[2] = tested on: hiPSC-derived endocrine progenitor cells; assay: Percentage of Neurogenin 3 protein expressing cells by flow cytometry; assay type: cell-based, human; conditions: three days; 400 nM (+)-JQ1 or 2000 nM IBET-151; three biological experiments
Experimental: (§3) Human induced pluripotent stem cells (iPSC) and human embryonic stem cells (ESC) were cultured on standard tissue culture plastic ware coated with hESC-qualified matrigel in mTeSR1™medium. Cells were passaged every three to four days as single cells using TrypLe Select. Rock inhibitor (5 μM) was included at the first day of passaging. Three different iPSC lines derived from a total of two individual donors and one ESC line were applied.
(§4) For differentiation, cells were seeded as single cells in mTeSR1 with 5 μM Rock inhibitor into tissue culture plates (Corning CellBind) at densities ranging between 300-400.000 cells/cm^2. Cells were cultured for 24 h at 37° C., 5% CO2. Following incubation, medium was aspirated and the cells were washed once in PBS before adding the differentiation medium. Differentiation was carried out essentially as described in Rezania et al. (Rezania et al., 2014b). The differentiation protocol is outlined in FIG. 2A. […]
(§5) Differentiation efficiency was analyzed by flow cytometry essentially as described in van de Bunt et al., 2016. […] Unconjugated antibodies were detected with fluorophore conjugated secondary antibodies.

[3] = tested on: hiPSC-derived pancreatic progenitors; assay: Neurogenin 3 mRNA by qPCR in hiPSC-derived pancreatic progenitors differentiated towards endocrine lineage; assay type: cell-based, human; conditions: three days, six different concentrations
Experimental: as §3
as §4, with “medium.” for “medium. Differentiation was carried out essentially as described in Rezania et al. (Rezania et al., 2014b). The differentiation protocol is outlined in FIG. 2A.”
RNA was isolated from cells using NucleoSpin RNA/protein isolation kit (Macherey-Nagel). RNA was quantified using a nanodrop and […] RNA pr. sample was converted to cDNA using iScript reverse transcription kit (Bio-Rad). Gene expression was evaluated using Tagman gene expression assay for Neurogenin 3(Hs01875204, Applied Biosystems).
Neurogenin 3 transcripts were normalized to the average expression of two housekeeping genes (ACTB, Hs01060665_g1 and HPRT1, Hs99999909_m1, both from Applied Biosystems). Relative expression was calculated using the ΔΔCt method (FIGS. 2B and 2C).

[4] = tested on: hiPSC-derived pancreatic progenitors; assay: Viability and cell number by Nucleocounter after BET inhibitor treatment; assay type: cell-based, human; conditions: three day treatment, all tested concentrations, vs concentration matched DMSO
Experimental: as §3, §4
Viability of the cells and total number of cells was analyzed using a Nucleocounter NC3000 Cell analyzer (Chemometec).

[5] = tested on: hiPSC-derived endocrine progenitor cells; assay: Neurogenin 3 protein by immunofluorescence microscopy; assay type: cell-based, human; conditions: three days; 500 nM (+)-JQ1 or 2000 nM IBET-151; vs DMSO
Experimental: as §3, §4

[6] = tested on: mouse embryonic pancreatic buds; assay: RT-qPCR of Ngn3, Ins1, Ins2 and MafA in cultured mouse pancreatic buds; assay type: cell-based; conditions: for Ngn3 relative mRNA levels: 0.5 μM IBET-151 or 0.1 μM (+)-JQ1, vs DMSO
Experimental: as §1, §2
Total RNA from three or more pancreatic buds was extracted using Qiagen RNA extraction microkit and 250ng were reverse transcribed using maxima first strand cDNA synthesis kit from Thermo Fisher. Real-time PCR analysis of Ngn3, MafA and Cyclophylin A were performed in 1× Sybr Green Powermix in QuantStudio 3 Applied Biosystem system. Real-time PCR analysis of Ins1 and Ins2 were performed in 1× TaqMan Gene Expression Mastermix in a QuantStudio 3 Applied Biosystem system. Relative expression of Ngn3, MafA and Cyclophylin A were calculated using the comparative method of relative quantification (2^−ΔΔCT) normalized to cyclophilin A expression. Values represent the average of three experiments with standard deviation error bars. Statistical analysis was performed using unpaired Student t test.

[7] = tested on: genetically modified hESC line that express GFP under the control of the Neurogenin 3 promoter; assay: GFP reporter under Neurogenin 3 promoter in differentiated hESC line; assay type: cell-based, human; conditions: three days; 400 nM (+)-JQ1 or 2000 nM IBET-151; vs DMSO
Experimental: as §3, §4, §5

[8] = 5 days with inhibitor (0.5 μM IBET-151 or 0.1 μM (+)-JQ1), then 9 additional days without inhibitor

## COc1cc2c(cc1-c1c(C)noc1C)ncc1[nH]c(=O)n([C@H](C)c3ccccn3)c12 [IBET-151]
[1]
  number of NGN3 positive nuclei: increased
[2]
  number of cells expressing Neurogenin 3 protein relative to control treated cells: approximately 1.6 fold
[3]
  Neurogenin 3 mRNA expression: dose-dependent increase
  concentration at which maximum Neurogenin 3 mRNA expression is achieved: 2000 nM
[4]
  cell number compared to controls: No obvious difference
  viability compared to controls: No obvious difference
[5]
  number of cells positive for Neurogenin 3 protein: clear increase
  staining intensity of Neurogenin 3 in individual cells: stronger
[6]; [8]
  Ins1 expression increase: 3 fold
  Ins2 expression increase: 3 fold
  MafA expression increase: 10 folds
[6]; after 3 days of treatment
  Ngn3 relative mRNA levels: strongly increased
[6]; after 7 days
  Ngn3 relative mRNA levels: remain increased
[7]
  cells expressing GFP compared to the control: more cells expressing GFP
